Like-named read-outs stand apart in the source and are kept apart here.

One data set relates to p-mTOR. The data set is described as follows: Western blot of p-AKT and p-mTOR in PI3K knocked down HCC827 cells. The data set is classed as cell-based, human. From the text:
First, we identified potential targets of DHW‐221. […] For mTOR, DHW‐221 precisely overlapped with it and formed two more hydrogen bonds (Val2240 and Thr2245) than NVP‐BEZ235 (Figure 1A). […] Additionally, we knocked down PI3K in HCC827 cells (Figure 1C) and compared how DHW‐221, NVP‐BEZ235, and wortmannin (a PI3K inhibitor) treatments affected AKT and mTOR protein phosphorylation levels. […] Finally, western blot and immunofluorescence analysis confirmed the effect of DHW‐221 on the expression of PI3K/AKT/mTOR pathway‐related proteins both in vitro and in vivo (Figure 1E–G). […] The effects of DHW‐221 on notch pathway are provided in Result S1.
FIGURE 1 DHW‐221 is a PI3K/mTOR dual‐target inhibitor and inhibits the PI3K/AKT/mTOR signaling pathway. (A) Predicted binding modes for DHW‐221 (blue stick) with PI3Kα (PDB code: 4JPS) and mTOR (PDB code: 4JT6). Hydrogen bonds are shown as green dashed lines. Key residues for DHW‐221 and BEZ235 interaction are highlighted. (B) A cellular thermal shift assay (CETSA) and an isothermal dose–response fingerprinting (ITDRF)cetsa were used to evaluate the thermal stability of DHW‐221 bound to PI3Kα/β or mTOR. (C, D) The expression of PI3K, p‐AKT, and p‐mTOR in transfected NSCLC cells was assessed by western blot. […]
For orientation: In western blotting, separated proteins are transferred to a membrane and probed.

Data set [1] deals with normal cell lines (HL7702, HUVEC, and MRC-5). The data set is described as follows: SRB cytotoxicity toward normal cell lines. It counts as cell-based. Conditions: MRC-5, 72 h. As for the experimental part:
(§1) To investigate the effect of DHW‐221 in vitro, SRB assay was performed. […] Additionally, the long‐term efficacy of DHW‐221 was evaluated and confirmed a better antiproliferation role than NVP‐BEZ235 (Figure 2C–E). Figure 2F investigates the concentration‐dependently inhibition of DHW‐221 on protein synthesis in cells. HCC827 xenograft models in both subcutaneous and orthotopic were used to further evaluate its antitumor potency in vivo. […] Moreover, DHW‐221 treatment could ameliorate the burden of orthotopic carcinoma to nude mice (Figure 2O, P).
Figure S3. The effect of DHW-221 on normal cell lines. SRB assay was used to determine the cytotoxicity of DHW-221 toward normal cell lines (HL7702, HUVEC, and MRC-5) at 72 h. Mean ± SD; **p < 0.01, ***p < 0.001 vs. the control. One-way analysis of variance followed by Tukey’s post hoc multiple-comparisons test.

The nature of a further data set: Pharmacokinetics in mice. It counts as in vivo. The conditions noted are these: mouse, plasma, 10 mg/kg; for MRT inf: read-out: MRTinf_obs. As for the experimental part:
^a Values are the average of three runs. Vehicle: DMSO:ethanol:saline=3:100:897. ^b Dose:10 mg/kg. T1/2, half-life; Cmax, maximum concentration; Tmax, time of maximum concentration; AUCall, area under the plasma concentration time curve.

For the next data set, the system named is NCI-H292. Briefly: SRB assay NCI-H292. The conditions noted are these: Homo sapiens, mean±SD. It counts as cell-based. As for the experimental part: as §1
(§2) FIGURE 2 DHW‐221 inhibits the viability of NSCLC cells both in vitro and in vivo. (A) The structure of compound DHW‐221. (B) The viability of HCC827, NCI‐H292, NCI‐H1993, and A549 cells treated with various concentrations of DHW‐221 at 24, 48, and 72 h was determined by sulforhodamine B (SRB) assay. (C–E) The growth‐inhibitory effect of DHW‐221 on HCC827 and NCI‐H1993 cells was measured using a colony formation assay (C), a lactate dehydrogenase (LDH) assay (D), and a tumor sphere formation assay (E). […] (F) OPP‐labeled protein content was detected by luciferase plate. (G) Tumor‐burdened nude mice and resected tumor samples from subcutaneous xenografts after 21 days (n = 6). (H) Subcutaneous tumor volume was measured daily with a caliper. (I) Mean tumor weight was measured to subcutaneous xenografts at the end of the experiment. (J) Subcutaneous xenografts nude mice were weighed daily on an electronic scale. (K) The index of each main organ of subcutaneous xenografts nude mice. (L) Liver and kidney function indexes subcutaneous xenografts nude mice were evaluated to predict drug toxicity. (M) Hematoxylin and eosin (H&E) staining of the liver, spleen, and kidney from subcutaneous xenografts nude mice; scale bar = 100 µm. (N) Photographs of NSCLC orthotopic tumor samples, n = 6. (O) Orthotopic xenografts nude mice were weighed daily on an electronic scale. (P) The index of lung organ was measured from orthotopic xenografts nude mice. Mean ± SD; *p < 0.05, **p < 0.01, ***p < 0.001 versus the control (model). […]
A general note: The SRB assay estimates cell density from bound dye.

Another data set relates to HCC827. The data set is described as follows: SRB assay HCC827. It counts as cell-based. Conditions: Homo sapiens, mean±SD. As for the experimental part:
as §1, §2

A further data set relates to NSCLC cells. Briefly: Cell cycle analysis by flow cytometry. It counts as cell-based, human. Conditions: 48 h, concentration-dependently. The source says:
The PI3K/AKT/mTOR pathway is strongly linked to the regulation of cell cycle progression and apoptosis during cell proliferation.[6], [7] […] Meanwhile, the expression of endogenous cyclins in G0/G1 phase was detected by western blot, confirming that DHW‐221 regulated the cell cycle (Figure 3B). Apoptosis is crucial for anticancer drugs to kill cancer cells.[7] […] Finally, the proapoptotic effects of DHW‐221 were confirmed by western blot analysis of apoptosis‐related protein expression both in vitro and in vivo (Figure 3G–I).
FIGURE 3 DHW‐221 induces cell cycle arrest and cell apoptosis in NSCLC both in vitro and in vivo. (A) DHW‐221 and NVP‐BEZ235 were detected by flow cytometry for 48 h. The raw histogram is shown at the top and the quantification of specific cell cycle stages at the bottom. (B) Western blot analysis of the expression levels of cell cycle‐related proteins in HCC827 and NCI‐H1993 cells after 48 h of treatment with the specified concentrations of DHW‐221 and NVP‐BEZ235. (C) Hoechst 33342 staining results. Apoptotic cells are bright blue; scale bar, 50 µm. […] Green fluorescence indicates decreased mitochondrial membrane potential, red fluorescence indicates normal mitochondrial membrane potential; scale bar, 100 µm. […] (G–I) The expression levels of apoptosis‐related proteins in NSCLC cells (G, H) and tumor tissues (I) were detected by western blot. […]
(In general: In flow cytometry, cells or beads pass a laser one at a time.)

A further data set concerns Notch2 and Notch3. Briefly: Western blot of Notch pathway proteins. It counts as cell-based, human. Conditions: HCC827 and NCI-H1993 cells, 48 h. As for the experimental part:
The PI3K signaling pathway is interrelated with Notch. However, the regulatory relationship between Notch and PI3K/AKT/mTOR pathways is still unclear. Next, we investigated the effects of DHW-221 on Notch and its downstream critical target Hes-1.
Figure S2. DHW-221 blocks the notch pathway. HCC827 and NCI-H1993 cells were treated with DHW-221 or NVP-BEZ235 for 48 h following which western blotting was performed on the cell lysates. Mean ± SD; **p < 0.01, ***p < 0.001 vs. the control. One-way analysis of variance followed by Tukey’s post hoc multiple-comparisons test.

For another data set, the target named is mTOR kinase (Homo sapiens, UniProt P42345). Briefly: mTOR kinase assay in vitro. The data set is classed as biochemical.
The subject of a further data set is HCC827 xenograft. The data set is described as follows: HCC827 xenograft models (subcutaneous and orthotopic) in nude mice. The data set is classed as in vivo. The procedure: as §1, §2
The test system of another data set is A549. The data set is described as follows: SRB assay A549. It counts as cell-based. Conditions: Homo sapiens, mean±SD. As for the experimental part:
as §1, §2

For a further data set, the system named is NCI-H1993. The data set is described as follows: SRB assay NCI-H1993. It counts as cell-based. The conditions noted are these: Homo sapiens, mean±SD. As for the experimental part: as §1, §2

Take `COc1ncc(-c2ccc3ncn(-c4ccc(OCCO)cc4)c3c2)cc1NS(=O)(=O)c1ccc(F)cc1F` [DHW-221]: the “p-mTOR expression compared with wortmannin” value in the data set with p-mTOR is on record as “significantly decreased”. For the same molecule, the “effect on normal cells” value in [1] is given as “without affecting the normal cells”. Further, the AUC (usually concentration integrated over time) in the data set “Pharmacokinetics in mice” (iv) stood at 262 ± 75.7 µg·h/mL; in “Pharmacokinetics in mice” (po), 176 ± 51.1 µg·h/mL. For the same molecule, the Cmax – broadly, the peak of the concentration-time curve – in the data set “Pharmacokinetics in mice” (iv) was 67400 ± 8540 ng/mL; in the data set “Pharmacokinetics in mice” (po) it was 11800 ± 3400 ng/mL. In addition, the time to peak (Tmax) (as a rule, the time from dosing to the highest level) in the data set “Pharmacokinetics in mice” (iv) stood at 0.083 h; in the data set “Pharmacokinetics in mice” (po), 3 ± 1.7 h. Further, the half-life (as a rule, the time needed for the level to fall by half in the phase considered) is 3.7 ± 0.2 h in “Pharmacokinetics in mice” (iv) and 7.1 ± 0.9 h in “Pharmacokinetics in mice” (po). In addition, the MRT inf is 4.7 ± 0.3 h in the data set “Pharmacokinetics in mice” (iv) and 11.4 ± 0.3 h in the data set “Pharmacokinetics in mice” (po). Moreover, the bioavailability (usually the share of a dose that reaches the circulation, judged against a reference dose that is usually intravenous) in the data set “Pharmacokinetics in mice” (po vs iv, read-out: F (oral bioavailability)) is 67.5%. The 50% inhibitory concentration (IC50) (as a rule, the concentration that inhibits the measured activity by half) in the data set on NCI-H292 (24h, n=3, read-out: IC50 NCI-H292 24h) worked out at 7.32 ± 2.42 µM; in the data set on NCI-H292 (48h, n=3, read-out: IC50 NCI-H292 48h), 0.253 ± 0.149 µM; in the data set on NCI-H292 (72h, n=3, read-out: IC50 NCI-H292 72h), 0.026 ± 0.003 µM; in the data set with HCC827 (24h, n=3, read-out: IC50 HCC827 24h), 8.33 ± 1.45 µM; in the data set with HCC827 (48h, n=3, read-out: IC50 HCC827 48h) it was 0.97 ± 0.127 µM; in the data set on HCC827 (72h, n=3, read-out: IC50 HCC827 72h) it was 0.032 ± 0.018 µM. Also, the 50% inhibitory concentration (IC50) on mTOR kinase amounted to 0.0039 µM; in the data set with A549 (24h, n=3, read-out: IC50 A549 24h), 7.14 ± 1.24 µM; in the data set on A549 (48h, n=3, read-out: IC50 A549 48h), 0.893 ± 0.288 µM; in the data set with A549 (72h, n=3, read-out: IC50 A549 72h), 0.372 ± 0.086 µM; in the data set on NCI-H1993 (24h, n=3, read-out: IC50 NCI-H1993 24h) it was 3.23 ± 1.29 µM; in the data set on NCI-H1993 (48h, n=3, read-out: IC50 NCI-H1993 48h) it was 0.762 ± 0.083 µM. Further, the IC50 in the data set with NCI-H1993 (72h, n=3, read-out: IC50 NCI-H1993 72h) turned out to be 0.117 ± 0.054 µM. Besides, the cell cycle arrest entry with NSCLC cells is listed as “arrested at G0/G1 phase”. For the same molecule, the “expression of Notch2 and Notch3” value in the data set with Notch2 and Notch3 is recorded as “had no effect”. Further, the tumor growth result in the data set on HCC827 xenograft (HCC827 subcutaneous and orthotopic xenografts, nude mice) was “apparently inhibited tumor growth”. Moreover, the alanine aminotransferase concentration result with HCC827 xenograft (subcutaneous xenograft nude mice, high dose) is given as “increased at high dose”. Also, the body weight entry in the data set on HCC827 xenograft (xenograft nude mice) is “without affecting body weight”.

For the molecule `Cn1c(=O)n(-c2ccc(C(C)(C)C#N)cc2)c2c3cc(-c4cnc5ccccc5c4)ccc3ncc21` [NVP‐BEZ235, reference compound], the “p-mTOR expression compared with wortmannin” value in the data set on p-mTOR is on record as “significantly decreased”.

The record behind these values is article PMC8473641, “Dual blocking of PI3K and mTOR signaling by DHW‐221, a novel benzimidazole derivative, exerts antitumor activity in human non‐small cell lung cancer” (Clinical and Translational Medicine, 2021).
